Data published in publication PMC12249541, “Novel Derivatives of 3-Amino-4-hydroxy-benzenesulfonamide: Synthesis, Binding to Carbonic Anhydrases, and Activity in Cancer Cell 2D and 3D Cultures” (International Journal of Molecular Sciences, 2025).
Entries after “also recorded” stand apart in the source; their conditions may differ. Like-named read-outs stand apart in the source and are kept apart here. Blank lines part the entries; values can stand above or below the compound they belong to.

Key:
[1] = tested on: triple-negative breast cancer MDA-MB-231; assay: MTT cell viability assay, MDA-MB-231; assay type: cell-based, human; conditions: read-out: EC50, MDA-MB-231
[2] = tested on: prostate adenocarcinoma PPC-1; assay: MTT cell viability assay, PPC-1; assay type: cell-based; conditions: Homo sapiens, read-out: EC50, PPC-1
[3] = tested on: human foreskin fibroblasts (HFs); assay: MTT cell viability assay, fibroblasts; assay type: cell-based; conditions: Fibroblast, 72 h, read-out: EC50, HF
[4] = tested on: U-87, MDA-MB-231, PPC-1 cell lines; assay: MTT cell viability assay, statements over several cell lines; assay type: cell-based, human; conditions: for EC50 / viability at 100 µM: Homo sapiens; for EC50: read-out: EC50 values, range over different cell lines
human glioblastoma U-87 = assay: MTT cell viability assay, U-87; assay type: cell-based; conditions: 72 h, read-out: EC50, U-87
CAI = CAI (Homo sapiens, UniProt P00915); assay: Fluorescent thermal shift assay (FTSA), CAI; assay type: binding
CAVA = CAVA (Homo sapiens, UniProt P35218); assay: Fluorescent thermal shift assay (FTSA), CAVA; assay type: binding; conditions: compared with compound 10
CAIX = CAIX (Homo sapiens, UniProt Q16790); assay: Fluorescent thermal shift assay (FTSA), CAIX; assay type: binding; conditions: compared with compound 10
U-87 spheroids = assay: 3D culture (cancer spheroids), U-87; assay type: cell-based, human; conditions: 10 µM
PPC-1 spheroids = assay: 3D culture (cancer spheroids), PPC-1; assay type: cell-based, human; conditions: 10 µM
[5] = tested on: recombinant human carbonic anhydrases (CAs); assay: FTSA, statements over several CA isoenzymes; assay type: binding; conditions: up to 200 µM
MDA-MB-231 spheroids = assay: 3D culture (cancer spheroids), MDA-MB-231; assay type: cell-based, human; conditions: 10 µM
CAII = CAII (Homo sapiens, UniProt P00918); assay: Fluorescent thermal shift assay (FTSA), CAII; assay type: binding; conditions: compared with compound 24
[6] = 100 μM, 72 h, MTT, at least one of the tested cell lines
[7] = Homo sapiens, MDA-MB-231, MTT, 72 h
[8] = MTT at the end of the experiment
[9] = cancer cells and fibroblasts 1:1, vs control

CAI, sequence (P00915 whole entry): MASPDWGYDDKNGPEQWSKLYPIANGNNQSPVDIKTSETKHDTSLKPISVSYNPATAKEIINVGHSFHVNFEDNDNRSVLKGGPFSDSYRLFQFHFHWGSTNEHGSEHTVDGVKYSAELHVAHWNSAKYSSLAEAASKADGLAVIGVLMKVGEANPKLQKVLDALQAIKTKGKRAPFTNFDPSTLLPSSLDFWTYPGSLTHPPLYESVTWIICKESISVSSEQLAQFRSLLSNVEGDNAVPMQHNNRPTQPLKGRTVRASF
CAVA, sequence (P35218 39-305): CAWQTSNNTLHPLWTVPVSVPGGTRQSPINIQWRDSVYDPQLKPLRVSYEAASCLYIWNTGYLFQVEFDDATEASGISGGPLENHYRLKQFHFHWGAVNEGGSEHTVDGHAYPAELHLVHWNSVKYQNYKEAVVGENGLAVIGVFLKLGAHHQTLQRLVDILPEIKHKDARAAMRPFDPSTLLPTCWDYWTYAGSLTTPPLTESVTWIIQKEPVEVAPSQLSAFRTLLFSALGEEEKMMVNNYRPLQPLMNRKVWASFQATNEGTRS

melting temperature (Tm) of CAI with increasing compound concentration (CAI; 0–200 µM of compound, FTSA): 56 to 66 °C
EC50 [1, 7]: 148 ± 22.5 µM
EC50 ([2]; PPC-1, MTT, 72 h): 137 ± 15.5 µM
EC50 (human glioblastoma U-87; MTT): 137 ± 15.4 µM
SMILES: NS(=O)(=O)c1ccc(O)c(NCC(=O)c2ccc(Cl)cc2)c1 [Compound 12, 4-Hydroxy-3-((2-(4-chlorophenyl)-2-oxoethyl)amino)benzenesulfonamide]
EC50 ([3]; MTT): 166 ± 7 µM
viability at 100 µM [4, 6]: < 20%

fold increase in affinity, CAI (CAI; compared with compound 10): 60 ×
fold increase in affinity, CAVA (CAVA): 9 ×
fold increase in affinity, CAIX (CAIX): 4.5 ×
SMILES: NS(=O)(=O)c1ccc(O)c(NCC(=O)c2cccc3ccccc23)c1 [Compound 14, 4-Hydroxy-3-((2-(naphthalen-1-yl)-2-oxoethyl)amino)benzenesulfonamide]
cell viability [4, 6]: did not show high cytotoxicity

EC50 [1, 7]: 127 ± 20.8 µM
EC50 ([2]; PPC-1, MTT, 72 h): 108 ± 17.7 µM
EC50 (human glioblastoma U-87; MTT): 105 ± 6 µM
SMILES: NS(=O)(=O)c1ccc(O)c(NCC(=NN=C(CNc2cc(S(N)(=O)=O)ccc2O)c2ccccc2)c2ccccc2)c1 [Compound 18, 3,3′-((Hydrazine-1,2-diylidenebis(2-phenylethan-1-yl-2-ylidene))bis(azanediyl))bis(4-hydroxybenzenesulfonamide)]
EC50 ([3]; MTT): 134 ± 11.1 µM
viability at 100 µM [4, 6]: < 20%

The next lines start with the compound.

SMILES: NS(=O)(=O)c1ccc(O)c(N=Cc2ccc([N+](=O)[O-])s2)c1 [Compound 9, 4-Hydroxy-3-(((5-nitrothiophen-2-yl)methylene)amino)benzenesulfonamide]
EC50 ([1]; Homo sapiens, MDA-MB-231, 72 h): 14 ± 3.2 µM
EC50 ([2]; PPC-1, 72 h): 13 ± 3.5 µM
EC50 [3]: 13.8 ± 5.2 µM
EC50 ([4]; 72 h): 13 to 23.3 µM
viability at 100 µM [4, 6]: < 20%
EC50 (human glioblastoma U-87): 23.3 ± 2.9 µM

SMILES: CCOc1ccc(S(=O)(=O)N(CC)CC)cc1-n1cc(-c2ccccc2)n(CC)c1=O [Compound 21, 4-Ethoxy-N,N-diethyl-3-(3-ethyl-2-oxo-4-phenyl-2,3-dihydro-1H-imidazol-1-yl)benzenesulfonamide]
viability of cells in spheroids, U-87 (U-87 spheroids; [8]): reduced the viability
spheroid growth / size, U-87 (U-87 spheroids; [9]): reduced the growth
EC50 [1, 7]: 57.3 ± 15 µM
EC50 ([2]; PPC-1, MTT, 72 h): 43.7 ± 15 µM
viability of cells in spheroids, PPC-1 (PPC-1 spheroids; [8]): reduced the viability
spheroid growth / size, PPC-1 (PPC-1 spheroids; [9]): no statistically significant effect
EC50 ([3]; MTT): 259 ± 8.4 µM
binding to CA isoenzymes (in words) [5]: completely lost its ability to bind; also recorded: abolished the ability; also recorded: did not bind any of the tested CAs
viability at 100 µM [4, 6]: < 20%
EC50 ([4]; MTT, 72 h): 43.7 to 148 µM
selectivity for cancer cells over fibroblasts ([4]; from EC50 values, cancer cell lines vs HF): 1.5–6 times
viability of cells in spheroids, MDA-MB-231 (MDA-MB-231 spheroids; [8]): reduced the viability
spheroid growth / size, MDA-MB-231 (MDA-MB-231 spheroids; [9]): reduced the growth
EC50 (human glioblastoma U-87; MTT): 148 ± 10.4 µM

SMILES: CCOc1ccc(S(=O)(=O)N(CC)CC)cc1-n1cc(-c2ccccc2)nc1SCC [Compound 23, 4-Ethoxy-N,N-diethyl-3-(2-(ethylthio)-4-phenyl-1H-imidazol-1-yl)benzenesulfonamide]
binding to CA isoenzymes (in words) [5]: lost its affinity; also recorded: abolished the ability

SMILES: COC(=O)CCNc1cc(S(N)(=O)=O)ccc1O [Compound 25, Methyl 3-((2-hydroxy-5-sulfamoylphenyl)amino)propanoate]
fold increase in affinity, CAII (CAII): ~40 ×

SMILES: CC(=O)Nc1cc(S(=O)(=O)NC(C)=O)ccc1O [Compound 27, N -((3-Acetamido-4-hydroxyphenyl)sulfonyl)acetamide]
binding to CA isoenzymes (in words) [5]: did not interact; also recorded: abolished the ability

SMILES: NS(=O)(=O)c1ccc(NC(=O)Nc2ccc(F)cc2)cc1 [Compound U-104, reference compound]
EC50 ([1]; MTT, 72 h): 240 ± 18 µM
